Reference: PMC6381168, “Anoctamin-4 is a bona fide Ca^2+-dependent non-selective cation channel” (Scientific Reports, 2019)

Target: T1, Ano4 (Mus musculus, UniProt Q8C5H1)
T1 construct: full length, 955 residues, C-terminal Myc tag (pcDNA3), transiently expressed in HEK293 cells
T1 sequence (Q8C5H1 1-955): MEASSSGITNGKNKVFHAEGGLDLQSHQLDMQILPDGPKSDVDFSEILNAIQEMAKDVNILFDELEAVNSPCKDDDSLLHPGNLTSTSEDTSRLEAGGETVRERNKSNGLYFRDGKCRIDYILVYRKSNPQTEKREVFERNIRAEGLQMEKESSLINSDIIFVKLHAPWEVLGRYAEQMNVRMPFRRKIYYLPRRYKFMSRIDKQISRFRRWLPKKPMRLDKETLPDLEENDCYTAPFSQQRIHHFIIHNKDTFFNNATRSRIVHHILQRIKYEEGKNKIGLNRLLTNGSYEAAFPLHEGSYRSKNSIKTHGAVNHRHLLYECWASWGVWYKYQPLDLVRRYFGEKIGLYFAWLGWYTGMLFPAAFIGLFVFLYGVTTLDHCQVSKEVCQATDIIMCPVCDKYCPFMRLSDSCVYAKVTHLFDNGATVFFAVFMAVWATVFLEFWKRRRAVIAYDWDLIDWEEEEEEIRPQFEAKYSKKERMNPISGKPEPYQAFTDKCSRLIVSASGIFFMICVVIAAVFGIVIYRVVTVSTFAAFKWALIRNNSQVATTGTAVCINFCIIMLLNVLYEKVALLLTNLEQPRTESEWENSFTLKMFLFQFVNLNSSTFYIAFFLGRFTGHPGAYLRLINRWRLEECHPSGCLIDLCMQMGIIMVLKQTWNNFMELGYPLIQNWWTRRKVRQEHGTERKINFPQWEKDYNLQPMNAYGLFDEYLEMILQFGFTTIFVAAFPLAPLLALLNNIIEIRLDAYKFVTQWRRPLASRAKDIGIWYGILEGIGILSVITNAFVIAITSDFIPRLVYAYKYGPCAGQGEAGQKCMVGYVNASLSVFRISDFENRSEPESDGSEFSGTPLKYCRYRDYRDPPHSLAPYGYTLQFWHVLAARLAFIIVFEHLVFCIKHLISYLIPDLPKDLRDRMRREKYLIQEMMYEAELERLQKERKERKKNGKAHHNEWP
Test: whole-cell patch clamp, block of ionomycin-activated current
Format: cell-based
Settings: 100 uM niflumic acid; extracellular Ringer with 1 uM ionomycin, pH 7.2, room temperature; channel blocker

## O=C(O)c1cccnc1Nc1cccc(C(F)(F)F)c1 [niflumic acid]
  whole-cell patch clamp, block of ionomycin-activated current: The Ano4-dependent current was blocked by the application of the fenamate niflumic acid
